Entries after “also recorded” stand apart in the source; their conditions may differ.
Tested on: HaCaT cells
Assay: Resazurin assay, HaCaT keratinocyte cell viability
Assay type: cell-based, human
Conditions: for effect on cell viability at 10 μM: single agent 10 μM, 24 hours (FIG. 1); for concentration at which the compound was found to reduce cell viability: single agent dose response, 24 hours treatment, resazurin (FIG. 1)
Experimental: The spontaneously immortalized, nontumorigenic skin keratinocyte cell line HaCaT was maintained in DMEM supplemented with 5% (v/v) FBS, 0.3 mg/ml glutamine and 0.1 mg/ml gentamicin at 37° C. with 5% CO2 in a humidified atmosphere. Subculture using trypsin-EDTA was performed every 3-4 days with split ratio of 1:3-1:4 to ensure actively proliferating cells.
Cells were seeded in 96 well plates in fully supplemented medium at a density of 3000 cells per well. Following 72 hour of cultivation, the cells were starved of serum in 0.25% FBS/DMEM overnight to halt proliferation, synchronize the cells and to increase cell sensitivity to treatment. Next day, the cells were treated with cPLA2α inhibitor Compound B, Compound A, vitamin D analogue Calcipotriol and corticosteroid hormone receptor agonist Betamethasone dipropionate for 24 hours. Resazurin was added next day according to the manufacturer's instruction (RnD Systems, UK) and left to incubate for […] in incubator at 37° C. with 5% CO2 in a humidified atmosphere before fluorescence was read at 544 nm excitation and 590 nm emission wavelength. The cells were observed under the microscope to evaluate possible morphology changes and signs of stress before addition of resazurin. The experiments were performed in series of 8 wells per treatment and repeated 3 times.

Compound	effect on cell viability at 10 μM	concentration at which the compound was found to reduce cell viability [µM]
C=C1/C(=C\C=C2/CCC[C@]3(C)[C@@H]([C@H](C)/C=C/[C@@H](O)C4CC4)CC[C@@H]23)C[C@@H](O)C[C@@H]1O [Calcipotriol]	no signs of impairment in cell viability; also recorded: no toxicity	15
CCCCCCCOc1ccc(OCC(=O)c2nc(C(=O)OC)cs2)cc1 [Compound A1]	no toxicity	20
